Source: ChEMBL document CHEMBL1201862, “PubChem BioAssay data set” (2004)
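Where inhibition never reached the appropriate level, the endpoint shown equals the highest concentration tested. Otherwise, values were interpolated linearly from a five-concentration, 48-hour dose response in 96-well plates. Abbreviation: GI50, concentration required for 50% inhibition of growth.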 Active and inactive are the calls of the source. Rule as the data show it: active = GI50 up to about 1.1 µM and inactive = higher.

What was measured:
Experiment in all cases: DTP human tumour cell line panel, 48 h
[1] = test system: HOP-18
[2] = test system: KM-20L2
[3] = test system: SNB-78
[4] = test system: DMS-273
[5] = test system: M19-MEL
[6] = test system: XF498
[7] = test system: DMS-114
[8] = test system: DLD-1
[9] = test system: RXF 631

Measured: GI50

Cc1cc(C)n(-c2ccnc3cc(Cl)ccc23)n1
inactive: [1] > 100 µM | [2] > 100 µM | [3] > 100 µM | [4] > 100 µM | [5] > 100 µM | [6] > 100 µM | [7] > 100 µM | [8] > 100 µM

Cc1csc(=S)n1OC(=O)NC1CCCCC1
inactive: [3] 97.7 µM | [4] > 49.4 µM | [5] 16.5 µM | [6] > 100 µM | [7] 12.3 µM | [8] 55.5 µM

C/N=c1\ss/c(=N\C(=S)N(C)C)n1C
inactive: [1] > 100 µM | [2] > 100 µM | [3] > 100 µM | [4] > 100 µM | [5] > 100 µM | [6] > 100 µM | [7] > 100 µM | [8] > 100 µM

O=[As](O)(O)c1cc(/N=N/c2ccc(-c3ccc(/N=N/c4cc([As](=O)(O)O)c(O)cc4O)cc3)cc2)c(O)cc1O
inactive: [1] > 100 µM | [2] > 100 µM | [3] > 100 µM | [4] > 100 µM | [9] > 100 µM | [5] > 100 µM | [7] > 80.4 µM | [8] > 43 µM

CCCCCCCCCC(=O)CC(=O)c1ccc(O)cc1O
inactive: [1] 20.1 µM | [2] 38 µM | [4] 28.2 µM | [8] 28.5 µM

Cc1ccc(NC(=S)SCCC(=O)O)cc1
inactive: [2] > 100 µM | [3] > 100 µM | [4] > 100 µM | [9] > 100 µM | [7] > 100 µM

CCNC1C2(CCCCC2)NC(=O)C12CCCCC2 (stereo unspecified)
inactive: [2] > 100 µM | [3] > 100 µM | [4] > 100 µM | [5] > 100 µM | [6] > 100 µM | [7] > 100 µM | [8] > 100 µM

CCC12C=CCN3CCC4(C(=C(C(=O)OC)C1)Nc1ccccc14)[C@H]32 (stereo partly specified)
inactive: [1] 26.5 µM | [2] 19.8 µM | [4] 17.9 µM | [5] 31.3 µM | [7] 19.2 µM | [8] 40.4 µM

O=C(NCCNCCO)N/N=C/c1ccccc1
inactive: [1] > 100 µM | [3] > 100 µM | [4] > 100 µM | [6] > 100 µM | [7] > 100 µM | [8] > 100 µM

CCC12C=CCN3CCC4(c5cc(C6(C(=O)OC)CCCCCc7c6[nH]c6ccccc76)c(OC)cc5N(C)C4C(O)(C(=O)OC)C1OC(C)=O)C32 (stereo unspecified)
inactive: [1] 2.34 µM | [2] 2.03 µM | [3] 2.78 µM | [5] 2.51 µM | [6] 2.33 µM | [7] 2.38 µM

CCOC(=O)C(Cc1c[nH]c2cc([N+](=O)[O-])ccc12)NS(=O)(=O)c1ccc2ccccc2c1 (stereo unspecified)
inactive: [1] 29.5 µM | [2] 19 µM | [3] 20.7 µM | [4] 17.5 µM | [5] 17.2 µM | [6] 17.3 µM | [7] 19.7 µM | [8] 23.7 µM

CO[C@@]12CC(=O)/C(=C(O)\C=C\c3ccccc3)C(=O)[C@]1(OC)Cc1ccccc1O2
inactive: [1] 35.6 µM | [2] 22.4 µM | [3] 30.5 µM | [9] 30.3 µM | [5] 37.5 µM | [6] 43 µM | [7] 44.8 µM | [8] 32.2 µM

Nc1nc(N)c(-c2ccccc2)c(CCC(=O)Nc2ccc(Cl)cc2)n1
inactive: [1] > 100 µM | [2] > 100 µM | [3] > 100 µM | [4] > 100 µM | [5] > 100 µM | [8] > 100 µM

COC1=CCC=C(C[C@@H]2NCCc3cc(OC)c(OC)cc32)C1
inactive: [2] > 100 µM | [3] > 100 µM | [4] > 100 µM | [5] > 100 µM | [6] > 100 µM | [8] > 100 µM

Cc1cccc(NC(=O)C(=O)C(C(=O)c2ccc3ccccc3c2)C2OC(=O)c3ccccc32)c1C (stereo unspecified)
inactive: [2] 33 µM | [3] 16.1 µM | [4] 13.8 µM | [9] 7.19 µM | [5] 9.91 µM | [6] 1.56 µM | [7] 7.67 µM | [8] 14.8 µM

O=c1cccccc1NCCNc1cccccc1=O
inactive: [2] > 100 µM | [3] > 100 µM | [4] > 100 µM | [9] > 100 µM | [5] > 100 µM | [6] > 100 µM | [7] > 100 µM | [8] > 10 µM

CCOC(=O)NC(=O)c1cn(C2OC(COC(=O)CCCCCCCCC(=O)OCC3OC(n4cc(C(=O)NC(=O)OCC)c(=O)[nH]c4=O)C4OC(C)(C)OC34)C3OC(C)(C)OC32)c(=O)[nH]c1=O (stereo unspecified)
inactive: [1] > 100 µM | [2] 67.6 µM | [3] > 100 µM | [4] 60.1 µM | [9] > 100 µM | [5] 26.9 µM | [6] 67.1 µM | [7] 93.1 µM | [8] > 100 µM

OCc1ccc(C2CC(c3ccco3)=NN2c2ccccc2)o1 (stereo unspecified)
inactive: [2] > 100 µM | [3] > 100 µM | [4] > 100 µM | [5] > 100 µM | [6] > 100 µM | [7] > 100 µM

COc1cc2ccc3c4cc(OC)c(OC(C)C)cc4cnc3c2cc1OC
inactive: [1] > 100 µM | [2] > 100 µM | [3] > 100 µM | [9] > 100 µM | [5] > 100 µM | [7] > 100 µM | [8] > 100 µM

CCOC(=O)NC(=O)c1cn(CCOC(=O)CCCCCCCCC(=O)OCCn2cc(C(=O)NC(=O)OCC)c(=O)[nH]c2=O)c(=O)[nH]c1=O
inactive: [1] > 100 µM | [2] > 100 µM | [3] > 100 µM | [4] > 100 µM | [9] > 100 µM | [5] > 100 µM | [6] > 100 µM | [7] > 100 µM | [8] > 100 µM

COC(=O)C1=C(C)N(NC(=O)c2cccc(Cl)c2)C(C)(O)C12CCOC2=O (stereo unspecified)
inactive: [2] > 100 µM | [3] 42.1 µM | [4] > 100 µM | [9] > 100 µM | [5] > 100 µM | [6] > 100 µM | [7] > 100 µM

Cc1c(O)c(O)cc[n+]1C1OC(CO)C(O)C1O (stereo unspecified)
inactive: [1] > 100 µM | [2] > 100 µM | [3] > 100 µM | [4] > 100 µM | [5] > 100 µM | [8] > 100 µM

Cc1cccc(Cl)c1NC(=O)c1cccc([N+](=O)[O-])c1O
inactive: [1] 28.5 µM | [2] 41.4 µM | [3] 71 µM | [4] 37.2 µM | [9] 36.7 µM | [6] 32.2 µM | [7] 25.8 µM | [8] 31.7 µM

N#CC(C#N)=C(N)/C(C#N)=C/c1ccc2[nH]ccc2c1
inactive: [1] 71.4 µM | [2] > 100 µM | [3] > 100 µM | [4] > 100 µM | [5] > 100 µM | [7] > 100 µM
